One data set concerns mouse quadriceps muscle. Put plainly: Luciferase expression in mouse quadriceps muscle 7 days after i.m. injection of plasmid VR1223 in salt solutions. It is filed as in vivo. On the set-up: lux: unit: ng/muscle. The settings on record: for ng Lux/Muscle: 50 μg VR1223 in 50 μl; for ng Lux/Muscle / Fold Saline: salts at 150 mM, day 7; for luciferase expression compared with saline (words): 150 mM solutions; for luciferase expression compared with saline (words) / luciferase expression, fold over saline: VR1223, day 7; for lux: 7-day luciferase expression, VR1223; for Fold Saline: relative to saline.

The nature of data set [1]: Osmolarity of the salt solutions. It is filed as physicochemical. The settings on record: for Osm: 150 mM unless otherwise indicated.
The nature of a further data set: pH of the salt solutions. In kind it is physicochemical.
The mark [2] stands for this setting: 150 mM unless otherwise indicated.

From patent US6875748B2, “Compositions and methods for in vivo delivery of polynucleotide-based therapeutics” (Vical Incorporated, priority 2000, dated 2005) come the findings set out here.

Read-outs that look alike come from different tables or passages of the source.

Turning to `O=C([O-])O.[Na+]` [Sodium Bicarbonate], in the data set with mouse quadriceps muscle, the “ng Lux/Muscle” value was found to be 330 ng/Muscle; the “luciferase expression compared with saline (words)” value is given as “increased luciferase expression compared with saline”; the “luciferase expression, fold over saline” value was found to be 2.8 fold; the “Fold Saline” value worked out at 2.8 Fold. Moreover, the lux in the data set on mouse quadriceps muscle (Table III-A) is 330. For the same compound, in the data set on mouse quadriceps muscle (Table III-B), the lux is 330. Further, the Osm in data set [1] came out at 727 mmol/kg. Moreover, the pH in “pH of the salt solutions” was found to be 9.0. In addition, the pH in the data set “pH of the salt solutions” (setting [2]) is on record as 9.0.
Consider `O=C([O-])CC(O)(CC(=O)[O-])C(=O)[O-].[Na+].[Na+].[Na+]` [Sodium Citrate], for which the “ng Lux/Muscle” value in the data set on mouse quadriceps muscle turned out to be 90 ng/Muscle. For the same compound, the “luciferase expression compared with saline (words)” value with mouse quadriceps muscle (listed as 150 mM sodium citrate) was “no ability to enhance”; in the data set on mouse quadriceps muscle (listed as Sodium citrate), “same luciferase expression as saline”; with mouse quadriceps muscle (listed as sodium citrate) it was “the same as with saline”. In addition, the lux amounted to 108 with mouse quadriceps muscle (Table III-A); 83 in the data set with mouse quadriceps muscle (Table III-A, listed as 50 mM Sodium Citrate); 108 in the data set with mouse quadriceps muscle (Table III-B); 83 with mouse quadriceps muscle (Table III-B, listed as 50 mM Sodium Citrate). In addition, the “Fold Saline” value with mouse quadriceps muscle is listed as <0.1 Fold. For the same compound, the osmolarity in data set [1] is 394 mmol/kg. The Osm is recorded as 394 mmol/kg in data set [1] and 164 mmol/kg in data set [1] (listed as 50 mM Sodium Citrate). For the same compound, the pH in “pH of the salt solutions” (setting [2]) was 7.5.
As for `O=C([O-])C(=O)[O-].[Na+].[Na+]` [Sodium Oxalate], in the data set on mouse quadriceps muscle, the “ng Lux/Muscle” value stood at 15 ng/Muscle, the “luciferase expression compared with saline (words)” value is given as “inhibited luciferase expression” and the “Fold Saline” value is <0.1 Fold. Moreover, in the data set on mouse quadriceps muscle (listed as 150 mM sodium oxalate), the “luciferase expression compared with saline (words)” value is reported as “no ability to enhance”. Also, the lux with mouse quadriceps muscle (Table III-A) was determined as 15. The lux in the data set on mouse quadriceps muscle (Table III-B) came out at 15. The Osm in data set [1] came out at 346 mmol/kg. In the data set “pH of the salt solutions” (setting [2]), the pH is recorded as 6.5.
In the case of `O=P([O-])([O-])OP(=O)([O-])[O-].[Na+].[Na+].[Na+].[Na+]` [Sodium Pyrophosphate], the lux in the data set on mouse quadriceps muscle (Table III-A) and with mouse quadriceps muscle (Table III-B) was 3 each time. Further, the Osm in data set [1] stood at 363 mmol/kg. In addition, in “pH of the salt solutions” (setting [2]), the pH turned out to be 9.0.
For `CC(=O)C(=O)[O-].[Na+]` [Sodium Pyruvate], in the data set on mouse quadriceps muscle, the “ng Lux/Muscle” value was 364 ng/Muscle, the “luciferase expression compared with saline (words)” value is on record as “increased luciferase expression compared with saline” and the “Fold Saline” value was 3.1 Fold. In the data set with mouse quadriceps muscle (Table III-A), the lux is listed as 364. Besides, the lux with mouse quadriceps muscle (Table III-B) stood at 364. Moreover, in data set [1], the Osm came to 271 mmol/kg. The pH in “pH of the salt solutions” (setting [2]) amounted to 6.0.
For `O=S(=O)([O-])[O-].[Na+].[Na+]` [Sodium Sulfate], in the data set with mouse quadriceps muscle, the “ng Lux/Muscle” value was found to be 312 ng/Muscle; the “luciferase expression compared with saline (words)” value is “increased luciferase expression compared with saline”; the “luciferase expression, fold over saline” value came out at 2.6 fold; the “Fold Saline” value was determined as 2.6 Fold. The lux with mouse quadriceps muscle (Table III-A) was 312. In the data set with mouse quadriceps muscle (Table III-B), the lux is 312. Also, in data set [1], the Osm is given as 349 mmol/kg. For the same compound, the pH in the data set “pH of the salt solutions” is given as 5.5. In addition, in the data set “pH of the salt solutions” (setting [2]), the pH was found to be 5.5.
Consider `O=P([O-])([O-])O.[Na+].[Na+]` [Sodium dibasic, Na2HPO4], for which, in the data set with mouse quadriceps muscle, the “ng Lux/Muscle” value amounted to 282 ng/Muscle, the “luciferase expression compared with saline (words)” value is recorded as “only slightly stimulated over saline” and the “Fold Saline” value is 2.4 Fold. Further, the lux in the data set on mouse quadriceps muscle (Table III-A) worked out at 282. The lux with mouse quadriceps muscle (Table III-B) stood at 282. Also, the Osm in data set [1] was found to be 357 mmol/kg. The pH in “pH of the salt solutions” (setting [2]) came out at 8.0.
As for `O=P([O-])(O)O.[Na+]` [Sodium monobasic, NaH2PO4], in the data set on mouse quadriceps muscle, the “ng Lux/Muscle” value is given as 198 ng/Muscle, the “luciferase expression compared with saline (words)” value is listed as “only slightly stimulated over saline” and the “Fold Saline” value is recorded as 1.7 Fold. The lux in the data set with mouse quadriceps muscle (Table III-A) stood at 198. Also, in the data set on mouse quadriceps muscle (Table III-B), the lux was found to be 198. In data set [1], the Osm stood at 277 mmol/kg. In “pH of the salt solutions” (setting [2]), the pH is 5.5.
